The values that follow come from US8481456B2 (priority 2009, dated 2013).

Like-named read-outs stand apart in the source and are kept apart here.

Series [1] concerns larvae of the mustard beetle (Phaedon cochleariae). In words: Phaedon cochleariae larvae test. The note with it: 72 h, read-out: Mortality in % after 3 d, found. Type of series: in vivo. The protocol:
Cabbage leaves (Brassica oleracea) are treated by being sprayed into the preparation of the active compound of the desired concentration and are infested with larvae of the mustard beetle (Phaedon cochleariae) as long as the leaves are still moist. After the specified period of time, the mortality in % is determined. 100% means that all the beetle larvae have been killed; 0% means that none of the beetle larvae have been killed.

Series [2] has as its system apple scab (Venturia inaequalis). Description: Venturia test (apples)/preventive. To be noted: Venturia inaequalis, 240 h, read-out: Efficacy in %, found.
Series [3] concerns Alternaria solani. In words: Alternaria test (tomatoes)/preventive. In kind it is in vivo. The note with it: Alternaria solani, 72 h, read-out: Efficacy in %, found.
Series [4] has as its system Phytophthora infestans. In words: whole plant or invertebrate. Type of series: in vivo. To be noted: 3 days after the inoculation; for pest or weed control at 100 ppm / pest or weed control at 200 ppm: Phytophthora infestans, 72 h; for pest or weed control at 200 ppm: 200 ppm a.i.
In series [5] the test system is Pyrenophora teres. Description: Pyrenophora teres test (barley)/preventive. In kind it is in vivo. The note with it: 8 days after the inoculation.
Series [6] deals with larvae of the diamondback moth (Plutella xylostella). In words: Plutella xylostella test. To be noted: 4 ppm a.i. In kind it is in vivo. As for the experimental part: Cabbage leaves (Brassica oleracea) are treated by being sprayed into the preparation of the active compound of the desired concentration and are infested with larvae of the diamondback moth (Plutella xylostella) as long as the leaves are still moist. After the specified period of time, the mortality in % is determined. 100% means that all the caterpillars have been killed; 0% means that none of the caterpillars have been killed.

Series [7] deals with Green peach aphid (Myzus persicae). In words: Myzus persicae test. Type of series: in vivo. To be noted: for mortality at 0.8 ppm: 0.8 ppm a.i. The protocol:
Cabbage leaves (Brassica oleracea) which are heavily infested by the Green peach aphid (Myzus persicae) are treated by being sprayed into the preparation of the active compound of the desired concentration. After the specified period of time, the mortality in % is determined. 100% means that all the aphids have been killed; 0% means that none of the aphids have been killed.

For series [8], the system named is Botrytis cinerea. Description: Botrytis test (beans)/preventive. To be noted: 2 days after the inoculation.
The mark [9] stands for this setting: read-out: Efficacy in %, found, Table I1, 100 ppm a.i.
Setting [10] is: read-out: Efficacy in %, found, Table I1.

A word on the mortality: it is the share of the test organisms that died. With `CNC(=O)Oc1cc(C)c(SC)c(C)c1` [(1A.15), methiocarb], in series [1], the mortality at 20 ppm came to 35%. Further, the pest or weed control at 100 ppm in series [2] turned out to be 4%; in series [3] it was 45%; in series [4] (read-out: Efficacy in %, found, Table I2, 100 ppm a.i.), 16%. The pest or weed control at 200 ppm in series [3] was determined as 47%.
Regarding `N#Cc1nn(-c2c(Cl)cc(C(F)(F)F)cc2Cl)c(N)c1[S+]([O-])C(F)(F)F` (centres unmarked) [(2B.2), fipronil], the figures for the pest or weed control at 200 ppm in series [2], in series [3] and in series [4] (setting [10]) were 8%, 44% and 47%, respectively. The pest or weed control at 100 ppm in series [3] was 28%; in series [4] (setting [9]), 30%. Moreover, the “Efficacy in %, found” value in series [5] (Table J2, 500 ppm a.i.) amounted to 0%.
For `CC1(C)C(C=C(Cl)Cl)C1C(=O)OC(C#N)c1ccc(F)c(Oc2ccccc2)c1` (centres unmarked) [(3A.10), cyfluthrin], the “Efficacy in %, found” value in series [5] (Table J2, 500 ppm a.i.) is given as 0%.
For the compound `CC1(C)C(C=C(Cl)Cl)C1C(=O)OC(C#N)c1ccc(F)c(Oc2ccccc2)c1` (stereo not drawn) [(3A.11), β-cyfluthrin], in series [6] (after 2 d), the “Mortality in % after 2 d, found” value is on record as 40%.
Consider `CC1(C)[C@H](C=C(Cl)Cl)[C@H]1C(=O)OCc1c(F)c(F)cc(F)c1F` [(3A.46), transfluthrin], for which the mortality at 4 ppm in series [7] (72 h, 4 ppm a.i., after 3 d, read-out: Mortality in % after 3 d, found) was found to be 0%.
As for `C/C(=N\C#N)N(C)Cc1ccc(Cl)nc1` [(4A.1), acetamiprid], the mortality at 4 ppm in series [7] (24 h, read-out: Mortality in % after 1 d, found) amounted to 10%; in series [1], 0%. Further, the “Efficacy in %, found” value in series [8] (100 ppm a.i.) is 0%. Besides, the pest or weed control at 200 ppm in series [4] (setting [10]) worked out at 27%.
With `CN/C(=N\[N+](=O)[O-])NCc1cnc(Cl)s1` [(4A.2), clothianidin], the mortality at 4 ppm in series [1] (4 ppm a.i., after 3 d) turned out to be 0%. Besides, the pest or weed control at 100 ppm in series [2] stood at 0%; in series [3], 49%; in series [4] (setting [9]), 30%. Also, the pest or weed control at 200 ppm in series [2] is 0%; in series [3], 45%. In series [5] (Table J2, 500 ppm a.i.), the “Efficacy in %, found” value was 0%.
As for `CN1COCN(Cc2cnc(Cl)s2)/C1=N\[N+](=O)[O-]` [(4A.7), thiamethoxam], the “Efficacy in %, found” value in series [8] (100 ppm a.i.) is listed as 0%; in series [5] (Table J1, 1000 ppm a.i.), 0%. Moreover, the pest or weed control at 100 ppm stood at 18% in series [2] and 30% in series [4] (setting [9]). The pest or weed control at 200 ppm in series [2] was determined as 25%; in series [3] (Table E1, 200 ppm a.i., 3 days after the inoculation), 64%.
In the case of `CNC(=O)c1cc(Cl)cc(C)c1NC(=O)c1cc(Br)nn1-c1ncccc1Cl` [(26.1), chloranthraniliprole (rynaxypyr)], in series [7] (48 h, after 2 d, read-out: Mortality in % after 2 d, found), the mortality at 0.8 ppm was 40%. Further, the mortality at 4 ppm in series [6] (Plutella xylostella, 24 h, after 1 d, read-out: Mortality in % after 1 d, found) stood at 25%. For the same compound, the “Efficacy in %, found” value is 0% in series [8] (100 ppm a.i.); 0% in series [8] (200 ppm a.i.); 14% in series [5] (Table J2, 500 ppm a.i.). For the same compound, the results for the pest or weed control at 100 ppm in series [2], in series [3] and in series [4] (setting [9]) were 0%, 37% and 32%, respectively. The pest or weed control at 200 ppm in series [3] came out at 37%.
Regarding `CNC(=O)c1cc(C#N)cc(C)c1NC(=O)c1cc(Br)nn1-c1ncccc1Cl` [(26.2), cyantraniliprole (cyazypyr)], the mortality at 4 ppm in series [7] (48 h, 4 ppm a.i., after 2 d, read-out: Mortality in % after 2 d, found) worked out at 50%. Moreover, the mortality at 0.8 ppm in series [1] (0.8 ppm a.i., after 3 d) turned out to be 25%. For the same compound, the “Efficacy in %, found” value in series [8] (100 ppm a.i.) and in series [8] (200 ppm a.i.) was 0% each time. In addition, the pest or weed control at 100 ppm worked out at 0% in series [2], 28% in series [3] and 30% in series [4] (setting [9]). The pest or weed control at 200 ppm in series [2] was 18%.
For the compound `CC(c1ccc(C(F)(F)F)nc1)S(C)(=O)=NC#N` (centres unmarked) [(27.27), sulfoxaflor], the mortality at 0.8 ppm in series [7] (24 h, after 1 d, read-out: Mortality in % after 1 d, found) was 20%. In addition, the “Efficacy in %, found” value in series [8] (200 ppm a.i.) worked out at 0%. Moreover, the pest or weed control at 100 ppm in series [2] and in series [3] was 0% each time. Also, in series [3], the pest or weed control at 200 ppm was found to be 51%.
spinosad [(5.2)]: in series [6] (after 1 d), the “Mortality in % after 1 d, found” value was found to be 70%. Besides, the “Efficacy in %, found” value is listed as 10% in series [4] (Table I2, 100 ppm a.i.) and 0% in series [5] (Table J1, 1000 ppm a.i.).
